Laboratory results reported in PubChem BioAssay AID248 (DTP/NCI, 2004).
Where “and” joins values, the source holds several entries; their conditions need not be identical. Equal values may be shown once. Toxic doses and inconclusive results are not listed. No stated cut-off is given here; in the data, active means T/C of 150% or more; inactive means T/C below 125%.

System: L1210 leukemia ip in BDF1 mice, survival T/C
Test: NCI In Vivo Anticancer Drug Screen. Data for tumor model L1210 Leukemia (intraperitoneal) in B6D2F1 (BDF1) mice
Conditions: endpoint: mean survival time, higher = longer survival
Outline: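 Antitumor effect is assessed in tumor-bearing animals. Survival in the compound arm is compared with a vehicle-dosed control arm and expressed as their quotient.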

[1] = dose: 100.0 mg/kg/injection, schedule: Q01DX009 (ip), vehicle: saline with Tween-80
[2] = dose: 100.0 mg/kg/injection, schedule: Q04DX002 (ip), vehicle: saline with Tween-80
[3] = dose: 200.0 mg/kg/injection, schedule: Q01DX009 (ip), vehicle: saline with Tween-80
[4] = dose: 200.0 mg/kg/injection, schedule: Q04DX002 (ip), vehicle: saline with Tween-80
[5] = dose: 400.0 mg/kg/injection, schedule: Q01DX009 (ip), vehicle: saline with Tween-80
[6] = dose: 400.0 mg/kg/injection, schedule: Q04DX002 (ip), vehicle: saline with Tween-80
[7] = dose: 100.0 mg/kg/injection, schedule: Q01DX001 (ip), vehicle: Klucel (hydroxypropylcellulose) (HPC)
[8] = dose: 100.0 mg/kg/injection, schedule: Q01DX001 (ip), vehicle: saline
[9] = dose: 200.0 mg/kg/injection, schedule: Q01DX001 (ip), vehicle: saline
[10] = dose: 400.0 mg/kg/injection, schedule: Q01DX001 (ip), vehicle: saline
[11] = dose: 100.0 mg/kg/injection, schedule: Q01DX009 (ip), vehicle: saline
[12] = dose: 200.0 mg/kg/injection, schedule: Q01DX009 (ip), vehicle: saline
[13] = dose: 50.0 mg/kg/injection, schedule: Q01DX009 (ip), vehicle: saline
[14] = dose: 100.0 mg/kg/injection, schedule: Q04DX003 (ip), vehicle: saline
[15] = dose: 200.0 mg/kg/injection, schedule: Q04DX003 (ip), vehicle: saline
[16] = dose: 400.0 mg/kg/injection, schedule: Q04DX003 (ip), vehicle: saline

Measured: T/C

O=C(Nc1ncccn1)c1ccc(Cl)cc1Cl
inactive: dose: 50.0 mg/kg/injection, schedule: Q04DX003 (ip), vehicle: saline with Tween-80 93 % of control | dose: 100.0 mg/kg/injection, schedule: Q01DX001 (ip), vehicle: saline with Tween-80 103 % of control | [1] 102 % of control | [2] 93 % of control and 91 % of control | dose: 100.0 mg/kg/injection, schedule: Q04DX003 (ip), vehicle: saline with Tween-80 94 % of control and 100 % of control | dose: 200.0 mg/kg/injection, schedule: Q01DX001 (ip), vehicle: saline with Tween-80 96 % of control | [3] 102 % of control | [4] 104 % of control | dose: 200.0 mg/kg/injection, schedule: Q04DX003 (ip), vehicle: saline with Tween-80 91 % of control | dose: 400.0 mg/kg/injection, schedule: Q01DX001 (ip), vehicle: saline with Tween-80 96 % of control | [5] 100 % of control | [6] 105 % of control and 107 % of control | dose: 400.0 mg/kg/injection, schedule: Q04DX003 (ip), vehicle: saline with Tween-80 103 % of control and 92 % of control

COc1cc2c(cc1[N+](=O)[O-])C(=O)CCCC2
inactive: dose: 50.0 mg/kg/injection, schedule: Q01DX009 (ip), vehicle: saline with Tween-80 88 % of control | [1] 92 % of control

Cc1ccc(Nc2n[nH]c(=S)s2)cc1C
inactive: [1] 93 % of control | [3] 92 % of control | [5] 106 % of control

O=C(c1ccc(F)cc1)C(F)(F)F
inactive: [7] 95 % of control and 101 % of control | dose: 100.0 mg/kg/injection, schedule: Q04DX003 (ip), vehicle: other 104 % of control | dose: 200.0 mg/kg/injection, schedule: Q01DX001 (ip), vehicle: Klucel (hydroxypropylcellulose) (HPC) 103 % of control | dose: 200.0 mg/kg/injection, schedule: Q04DX003 (ip), vehicle: other 108 % of control | dose: 400.0 mg/kg/injection, schedule: Q01DX001 (ip), vehicle: Klucel (hydroxypropylcellulose) (HPC) 95 % of control and 101 % of control | dose: 400.0 mg/kg/injection, schedule: Q04DX003 (ip), vehicle: other 94 % of control

COc1c(N)c(C)nc(Cl)c1C#N
inactive: [8] 97 % of control | [9] 103 % of control | [10] 109 % of control

Nc1nc2ncc(CNc3ncc(C(=O)NC(CCC(=O)O)C(=O)O)s3)nc2c(=O)[nH]1 (configuration not stated)
inactive: dose: 50.0 mg/kg/injection, schedule: Q01DX001 (ip), vehicle: other 105 % of control | dose: 100.0 mg/kg/injection, schedule: Q01DX001 (ip), vehicle: other 106 % of control

OC1c2cc(Br)ccc2-c2c(F)cc(Br)cc21 (configuration not stated)
inactive: dose: 100.0 mg/kg/injection, schedule: Q01DX001 (ip), vehicle: carboxymethylcellulose (CMC) 100 % of control | dose: 200.0 mg/kg/injection, schedule: Q01DX001 (ip), vehicle: carboxymethylcellulose (CMC) 109 % of control | dose: 400.0 mg/kg/injection, schedule: Q01DX001 (ip), vehicle: carboxymethylcellulose (CMC) 103 % of control

CCOC(=O)c1cc(=O)c2c(ccc3ccccc32)[nH]1
inactive: dose: 100.0 mg/kg/injection, schedule: Q04DX003 (ip), vehicle: Klucel (hydroxypropylcellulose) (HPC) 94 % of control | dose: 200.0 mg/kg/injection, schedule: Q04DX003 (ip), vehicle: Klucel (hydroxypropylcellulose) (HPC) 93 % of control

C=CS(=O)(=O)CCN(C)C
inactive: dose: 100.0 mg/kg/injection, schedule: Q04DX002 (ip), vehicle: saline 94 % of control | dose: 200.0 mg/kg/injection, schedule: Q04DX002 (ip), vehicle: saline 90 % of control | dose: 400.0 mg/kg/injection, schedule: Q04DX002 (ip), vehicle: saline 94 % of control

CC(=O)OC1CCC2(C)C(CCC3C4CC=C(C(C)=O)C4(C)CCC32)C1 (configuration not stated)
inactive: dose: 100.0 mg/kg/injection, schedule: Q01DX009 (sc), vehicle: steriod suspending solution 94 % of control | dose: 100.0 mg/kg/injection, schedule: Q04DX003 (sc), vehicle: steriod suspending solution 115 % of control | dose: 200.0 mg/kg/injection, schedule: Q01DX009 (sc), vehicle: steriod suspending solution 109 % of control | dose: 200.0 mg/kg/injection, schedule: Q04DX003 (sc), vehicle: steriod suspending solution 103 % of control | dose: 400.0 mg/kg/injection, schedule: Q01DX009 (sc), vehicle: steriod suspending solution 98 % of control | dose: 400.0 mg/kg/injection, schedule: Q04DX003 (sc), vehicle: steriod suspending solution 105 % of control

Cc1c(N)nc(N)nc1C(=O)O
inactive: dose: 25.0 mg/kg/injection, schedule: Q01DX001 (ip), vehicle: Klucel (hydroxypropylcellulose) (HPC) 108 % of control | dose: 50.0 mg/kg/injection, schedule: Q01DX001 (ip), vehicle: Klucel (hydroxypropylcellulose) (HPC) 93 % of control | [7] 105 % of control

N#C/C(=C\c1cccn1Cc1ccc2c(c1)OCO2)C(N)=O
inactive: dose: 25.0 mg/kg/injection, schedule: Q04DX002 (ip), vehicle: Klucel (hydroxypropylcellulose) (HPC) 101 % of control | dose: 50.0 mg/kg/injection, schedule: Q04DX002 (ip), vehicle: Klucel (hydroxypropylcellulose) (HPC) 101 % of control | dose: 100.0 mg/kg/injection, schedule: Q04DX002 (ip), vehicle: Klucel (hydroxypropylcellulose) (HPC) 96 % of control

CC/C=C(\CCC)CCCC
inactive: [2] 94 % of control | [4] 97 % of control | [6] 94 % of control

Cc1ccc(S(=O)(=O)N2CCc3ccccc3C(=O)C2Br)cc1 (configuration not stated)
inactive: [11] 97 % of control | [12] 94 % of control | dose: 400.0 mg/kg/injection, schedule: Q01DX009 (ip), vehicle: saline 86 % of control

O=C(OCC1CC1)c1ccc(N=Nc2ccccc2)cc1
inactive: dose: 75.0 mg/kg/injection, schedule: Q04DX002 (ip), vehicle: Klucel (hydroxypropylcellulose) (HPC) 102 % of control | dose: 150.0 mg/kg/injection, schedule: Q04DX002 (ip), vehicle: Klucel (hydroxypropylcellulose) (HPC) 108 % of control | dose: 300.0 mg/kg/injection, schedule: Q04DX002 (ip), vehicle: Klucel (hydroxypropylcellulose) (HPC) 105 % of control

CC(=O)Oc1c(F)c(F)c(F)c(F)c1F
inactive: dose: 25.0 mg/kg/injection, schedule: Q04DX002 (ip), vehicle: saline with Tween-80 87 % of control | dose: 50.0 mg/kg/injection, schedule: Q04DX002 (ip), vehicle: saline with Tween-80 90 % of control | [2] 93 % of control

NC(=O)CCP(=O)(CCC(N)=O)CCC(N)=O
inactive: [13] 94 % of control | dose: 50.0 mg/kg/injection, schedule: Q04DX003 (ip), vehicle: saline 101 % of control | [11] 94 % of control | [14] 103 % of control | [12] 90 % of control | [15] 95 % of control | [16] 98 % of control

CC(O)C(O)C(=O)O (configuration not stated)
inactive: dose: 25.0 mg/kg/injection, schedule: Q01DX009 (ip), vehicle: saline 95 % of control | [13] 90 % of control | [8] 96 % of control | [11] 95 % of control | [14] 108 % of control | [9] 102 % of control | [15] 101 % of control | [10] 96 % of control | [16] 94 % of control
